According to patent US7371776B2, “Methods and compositions for treating cancer” (Mars, Incorporated, priority 2004, dated 2008):

Experiments:
Assay type in all cases: cell-based, human
AIN4 cells = assay: Crystal violet cellular proliferation assay; details: 100 μg/mL
Procedure: The 184A1N4 cell line (hereinafter “A1N4”) is a non-tumorigenic cell line derived from primary cultures of HMECs and immortalized with benzo(a)pyrene (provided by Dr. M. R. Stampfer, University of California, Berkley, Calif.) (Stampfer, M. R. et al., Proc. Natl. Acad. Sci. USA, 82: 2394-2398, 1985). These cells were maintained in IMEM medium with 0.5% FBS, 0.5 μg/mL of hydrocortisone (Biofluids), 5 μg/mL insulin and 10 ng/mL of EGF.
One×10^3 cells per well were seeded in 96 well dishes (Coming Costar, Cambridge, Mass.). Primary cultures of HMECs, A1N4 and 184B5 cells were evaluated at two different cell densities (seeded at 1×10^3 and 2×10^3 per well). After 24 hours of cell attachment, cells in triplicate wells were treated with pentamer at a concentration of 100 μg/mL. The cells on the same plate were treated with corresponding controls: (i) media containing DMSO, and (ii) media with no additions.
Cells were treated for 1, 2, 3, 6, 8 and 10 days, but in some cases, the samples were collected at days 2, 3, 4, 7 and 10 post-treatment. Each treatment was conducted in triplicate. […] The optical density (OD) of samples was read at 550 nm on an Ultramark Microplate Imagining System (BioRad, Philadelphia, Pa.). […] Statistical significance was determined using the t test analysis.

Cdc2 (Tyr15) = assay: LPS multi-well plate phosphorylation screen in MDA MB-231 cells; details: 100 μg/mL, densitometry vs control
Text: (§1) Layered Protein Scanning (LPS) is a method for screening liquid protein samples in a high throughput manner using multi-well plates [Englert, C. R. et al., Cancer Res., 60: 1526-1530, 2000], and conducted by 20/20 Gene Systems, Inc., (Rockville, Md.). In short, cells are lysed and protein extract loaded into the wells of vacuum manifold and transferred through a stack of membranes. From each set of samples, up to five dot blot membranes are generated.
(§2) MDA MB-231 human breast cancer cells were treated, with or without 100 μg/mL pentamer, for 48 and 72 hours. Cells were lysed in LPS/MWP lysis buffer (20/20 Gene Systems, Inc.). Protein concentration was determined using BCA Protein Assay Kit (Pierce, Rockford, Ill.). Ten and 20 μg of each protein sample was loaded in duplicate onto Bio-Dot Microfiltration Apparatus (BioRad, Philadelphia, Pa.) and transferred through a 5-membrane stack as recommended by the manufacturer (20/20 Gene Systems). After the transfer, all of the membranes were biotinylated in 1 mg/mL EZ-Link Sulfo-NHS-Biotin solution in 1×PBS for 10 minutes at room temperature (Pierce).
(§3) Membranes were incubated overnight at 4° C. with the antibodies shown in Table 1 (1:500 or 1:1000 dilution). The following day, membranes were washed in Tris-buffered saline with Tween 20 (0.1%) (TBST buffer) and incubated for 60 minutes at room temperature in a mixture of FluoroLink Cy 5-labeled Streptavidin (1:500, Amersham) and Fluorescein-labeled secondary anti-mouse or anti-rabbit antibody (1:2,000, Molecular Probes, Eugene, Oreg.), followed by washes in TBST. Membranes were dried and scanned on a Typhoon scanner (Amersham), and obtained images were analyzed with InageQuant software (Amersham). Data were plotted in Excel and statistically analyzed in JMP (SAS Institute, Inc., Cary, N.C.). Hierarchical clustering analysis was performed to evaluate segregation of samples into control and treated groups.

FKHR (Ser256) = assay: as above; details: 100 μg/mL, 72 hours, densitometry vs control
Text: as §1, §2, §3

PKC-δ at Ser643 = assay: as above; details: 100 μg/mL
Text: as §1, §2, §3

[1] = test system: SAPK/JNK at Thr183/Tyr185; assay: as above; details: 100 μg/mL
Text: as §1, §2, §3

Stat 5 at Tyr 694 = assay: as above; details: 100 μg/mL
Text: as §1, §2, §3

p53 [2] = assay: as above; details: 100 μg/mL
Text: as §1, §2, §3

p53 [3] = assay: High resolution profiling (P-FILM) of p53 in MDA MB-231 cells; details: 100 μg/mL
Procedure: (§4) Both p53 and pRb contain multiple phosphorylation sites, and evaluating each site separately provides a more accurate indication of each protein's potential function. Therefore, a high resolution functional profiling of the proteins was performed using P-FILM technology (20/20 Gene Systems, Inc.).
(§5) The same protein samples as those used for PDVF membrane blotting were used. Ten μg of each protein sample of MDA MB-231 cells, and in some cases MDA MB-468 and MCF-7 cells, treated with 100 μg /mL of pentamer or DMSO-treated controls, were separated by PAGE on 4-20% gradient gels (BioRad). Proteins were transferred on a stack of ten membranes, according to manufacturer's instructions (20/20 Gene Systems, Inc.). The membranes were probed with antibodies recognizing total and phosphorylated p53 (p53Ser6, Ser9, Ser15, Ser20, Ser37, Ser46 and Ser392) at 1:1000 dilution as recommended by the manufacturer (Cell Signaling). The secondary antibody used in all cases was anti-rabbit polyclonal 1:2000 (Amersham). Signals were visualized on BIOMAX MR film (Kodak). The profiling of pRb was done using anti-phospho pRb (Ser780, Ser 795 and Ser 807/811) and anti-pRb polyclonal antibody (Cell Signaling) at a 1:1000 dilution. The secondary antibody used in all cases was anti-rabbit at 1:2000 dilution (Amersham). Image analysis was performed with Kodak 1D image analysis software. Background corrected intensity values were normalized for loading by using GAPDH intensities. Numerical analysis was performed in Excel.

pRb = assay: High resolution profiling (P-FILM) of pRb in MDA MB-231 cells; details: 100 μg/mL, 48 and 72 hours
Procedure: as §4
as §5, with “Background corrected intensity values were normalized for loading by using GAPDH intensities. Numerical analysis was performed in Excel.” left out

Oc1cc(O)c2c(c1)O[C@H](c1ccc(O)c(O)c1)[C@H](O)[C@H]2c1c(O)cc(O)c2c1O[C@H](c1ccc(O)c(O)c1)[C@H](O)[C@H]2c1c(O)cc(O)c2c1O[C@H](c1ccc(O)c(O)c1)[C@H](O)[C@H]2c1c(O)cc(O)c2c1O[C@H](c1ccc(O)c(O)c1)[C@H](O)[C@H]2c1c(O)cc(O)c2c1O[C@H](c1ccc(O)c(O)c1)[C@H](O)C2 [pentamer, pentameric procyanidin]
growth inhibited, in comparison to DMSO-treated controls (AIN4 cells): 7.3 fold | phosphorylation of Cdc2 (Tyr15) decreased (Cdc2 (Tyr15); 48 hrs): 31% | phosphorylation of Cdc2 (Tyr15) decreased (Cdc2 (Tyr15); 72 hrs): 45% | phosphorylation of FKHR (Ser256) decreased (FKHR (Ser256)): 63% | phosphorylation of PKC-δ at Ser643 decreased (PKC-δ at Ser643; 48 hrs): 22% | phosphorylation of PKC-δ at Ser643 decreased (PKC-δ at Ser643; 72 hrs): 49% | phosphorylation of SAPK/JNK at Thr183/Tyr185 decreased ([1]; 48 hrs): 34% | phosphorylation of SAPK/JNK at Thr183/Tyr185 decreased ([1]; 72 hrs): 26% | Stat 5 phosphorylation at Tyr 694 decreased (Stat 5 at Tyr 694; 48 hrs): 28% | Stat 5 phosphorylation at Tyr 694 decreased (Stat 5 at Tyr 694; 72 hrs): 33% | phosphorylation of p53 residues Ser6, Ser9, Ser20 and Ser15 (p53 [2]; LPS): not significantly affected | phosphorylation of p53 (antibody mix at Ser37, 46 and 392) decreased (p53 [2]; post treatment, densitometry vs control): 36% | percentage of p53 phosphorylated at Ser392 decreased, compared to untreated controls (p53 [3]): 53% | phosphorylation of p53 Ser15 residue (p53 [3]; 48 h): slight decreases | phosphorylation of p53 Ser46 (p53 [3]; 48 h): slight decreases | phosphorylation of p53 Ser20 residue (p53 [3]; 48 hrs): decreased | levels of endogenous p53 expression (p53 [3]; 48 hrs, not significant by densitometry): slightly decreased | phosphorylation of p53 Ser20 residue (p53 [3]; 72 hrs): not affected | phosphorylation of p53 Ser392 residue (p53 [3]; both 48 and 72 hrs): significant dephosphorylation | phosphorylation of pRb on all tested residues (Ser780, Ser795 and Ser807/811) (pRb): decrease | protein expression of endogenous pRb (pRb): decrease
